What all share (format): cell-based
The subject of experiment [1] is HL60 (Human promyelocytic leukemia cell line). In words: CellTiter Glo assay in HL60 cells. As for the experimental part: (§1) The compounds prepared according to the methods described herein and tested for activity in the CellTiter Glo assay in HL60 (Human promyelocytic leukemia cell line), Jukat (human T lymphocyte cell line for acute T cell leukemia) and/or Nalm6 (human ALL cell line) cells.
(§2) Compounds were prepared according to the methods described herein and tested for activity in the CellTiter Glo assay in HL60 (Human promyelocytic leukemia cell line), Jukat (human T lymphocyte cell line for acute Tcell leukemia) and/or Nalm6 (human ALL cell line) cells.
A general note: In ATP-based viability assays light output follows the ATP content of the culture.

Experiment [2] concerns Jukat (human T lymphocyte cell line for acute T cell leukemia). As to the kind of experiment: CellTiter Glo assay in Jukat cells. The note with it: second Table 4. The method, then: as §1, §2
In experiment [3] the test system is Nalm6 (human ALL cell line). As to the kind of experiment: CellTiter Glo assay in Nalm6 cells. The note with it: NALM-6, second Table 4. The method, then:
as §1, §2

Structures are written as SMILES. Bounds are passed on as bounds.

By IC50 is commonly meant the point on the concentration scale where inhibition reaches its midpoint. Read a high IC50 as a need for much substance.

The molecule `N#Cc1ccc(NC(=O)c2ccccc2O)cc1` [Compound 1] registered a 50% inhibitory concentration (IC50) in experiment [1] (HL-60, second Table 4) of 1 to 10 µM.
In turn, `N#Cc1ccc(NC(=O)c2cc(Br)ccc2O)cc1` [Compound 2] showed an IC50 in experiment [1] (HL-60, second Table 4) of under 1 µM.
Consider `N#Cc1ccc(NC(=O)c2cc(Cl)ccc2O)cc1` [Compound 3], for which the IC50 in experiment [1] (HL-60, second Table 4) is under 1 µM.
As for `N#Cc1ccc(NC(=O)c2cc(F)ccc2O)cc1Cl` [Compound 5], in experiment [1] (HL-60, second Table 4), the half-maximal inhibitory concentration (IC50) was under 1 µM.
In the case of `Cc1cc(NC(=O)c2cc(F)ccc2O)ccc1C#N` [Compound 6], the half-inhibitory concentration (IC50) in experiment [1] (HL-60, second Table 4) is under 1 µM.
As for `N#Cc1ccc(NC(=O)c2cc(Br)ccc2O)cc1Cl` [Compound 7], in experiment [1] (HL-60, second Table 4), the concentration for half-maximal inhibition (IC50) is under 1 µM.
`N#Cc1ccc(NC(=O)c2cc(F)ccc2O)cc1` [Compound 8] yielded an IC50 in experiment [1] (HL-60, second Table 4) of under 1 µM.
Still for that read-out and setting: next, `N#Cc1ccc(NC(=O)c2ccc(Br)cc2O)cc1` [Compound 9]: under 1 µM; `N#Cc1ccc(NC(=O)c2ccc(F)cc2O)cc1` [Compound 10]: under 1 µM; `N#Cc1ccc(NC(=O)c2ccc(Br)cc2O)c(Cl)c1` [Compound 11]: under 1 µM.
On the same count and under the same terms, next, `N#Cc1ccc(NC(=O)c2ccc(Br)cc2O)c(F)c1` [Compound 12]: under 1 µM.
`N#Cc1ccc(NC(=O)c2ccc(Br)cc2O)cc1Cl` [Compound 13] had a half-inhibitory concentration (IC50) in experiment [1] (HL-60, second Table 4) of under 1 µM.
Consider `N#Cc1ccc(NC(=O)c2cc(-c3ccccc3)ccc2O)cc1` [Compound 15], for which the IC50 was under 1 µM in experiment [2]; 1 to 10 µM in experiment [3]; 1 to 10 µM in experiment [1] (HL-60, second Table 4).
Turning to `N#Cc1ccc(NC(=O)c2ccc(Cl)cc2O)cc1` [Compound 16], the IC50 in experiment [1] (HL-60, second Table 4) is under 1 µM.
For `N#Cc1ccc(NC(=O)c2ccc(C(F)(F)F)cc2O)cc1` [Compound 17], the IC50 in experiment [2] is under 1 µM; in experiment [3] it was under 1 µM; in experiment [1] (HL-60, second Table 4), under 1 µM.
With `Cc1ccc(NC(=O)c2cc(F)ccc2O)cc1C#N` [Compound 19], the 50% inhibitory concentration (IC50) in experiment [1] (HL-60, second Table 4) was 1 to 10 µM.
Regarding `N#Cc1cc(NC(=O)c2cc(F)ccc2O)ccc1F` [Compound 20], the 50% inhibitory concentration (IC50) in experiment [2] lay in the range of 1 to 10 µM; in experiment [3], 1 to 10 µM; in experiment [1] (HL-60, second Table 4), 1 to 10 µM.
On to `Cc1cc(NC(=O)c2cc(F)ccc2O)ccc1[N+](=O)[O-]` [Compound 21], for which the IC50 in experiment [1] (HL-60, second Table 4) was under 1 µM.
`O=C(Nc1ccc([N+](=O)[O-])cc1Cl)c1cc(F)ccc1O` [Compound 22] showed an IC50 in experiment [1] (HL-60, second Table 4) of under 1 µM.
On to `O=C(Nc1ccc([N+](=O)[O-])cc1Cl)c1cc(Cl)ccc1O` [Compound 23], for which the half-inhibitory concentration (IC50) in experiment [2] is under 1 µM; in experiment [3], under 1 µM; in experiment [1] (HL-60, second Table 4) it was under 1 µM.
For the molecule `CC(=O)Oc1ccc(Cl)cc1C(=O)Nc1ccc([N+](=O)[O-])cc1Cl` [Compound 24], the half-maximal inhibitory concentration (IC50) was under 1 µM in experiment [2]; under 1 µM in experiment [3]; under 1 µM in experiment [1] (HL-60, second Table 4).
`Cc1cc(NC(=O)c2cc(Cl)ccc2O)ccc1[N+](=O)[O-]` [Compound 25] came in with an IC50 in experiment [1] (HL-60, second Table 4) of under 1 µM.
The molecule `O=C(Nc1ccc(Br)c(Cl)c1)c1cc(F)ccc1O` [Compound 26] returned an IC50 in experiment [1] (HL-60, second Table 4) of under 1 µM.
Take `CC(=O)Oc1ccc(F)cc1C(=O)Nc1ccc(Br)c(Cl)c1` [Compound 27]: the concentration for half-maximal inhibition (IC50) in experiment [2] was under 1 µM; in experiment [1] (HL-60, second Table 4), under 1 µM.
`O=C(Nc1ccc(Br)c(Cl)c1)c1cc(Cl)ccc1O` [Compound 30] had a concentration for half-maximal inhibition (IC50) in experiment [1] (HL-60, second Table 4) of under 1 µM.
For the molecule `O=C(Nc1ccc(Cl)c(Cl)c1)c1cc(F)ccc1O` [Compound 31], the IC50 is under 1 µM in experiment [2]; 1 to 10 µM in experiment [3]; under 1 µM in experiment [1] (HL-60, second Table 4).
As to `O=C(Nc1ccc(F)c(F)c1)c1cc(F)ccc1O` [Compound 32], the half-maximal inhibitory concentration (IC50) is under 1 µM in experiment [2]; 1 to 10 µM in experiment [3]; under 1 µM in experiment [1] (HL-60, second Table 4).
For `O=C(Nc1cccc(F)c1)c1cc(F)ccc1O` [Compound 33], the IC50 in experiment [2] lay in the range of 1 to 10 µM; in experiment [3] it was 1 to 10 µM; in experiment [1] (HL-60, second Table 4), 1 to 10 µM.
With `Cc1cc(NC(=O)c2cc(F)ccc2O)ccc1Cl` [Compound 34], the IC50 in experiment [1] (HL-60, second Table 4) was under 1 µM.
Turning to `Cc1cc(NC(=O)c2cc(Cl)ccc2O)ccc1Cl` [Compound 35], the concentration for half-maximal inhibition (IC50) in experiment [1] (HL-60, second Table 4) is under 1 µM.
For `Cc1cc(Cl)ccc1NC(=O)c1cc(F)ccc1O` [Compound 36], the IC50 in experiment [1] (HL-60, second Table 4) lay within 1 to 10 µM.
For `O=C(Nc1ccc(Cl)cc1F)c1cc(F)ccc1O` [Compound 37], the concentration for half-maximal inhibition (IC50) in experiment [2] was under 1 µM; in experiment [3] it was 1 to 10 µM; in experiment [1] (HL-60, second Table 4) it was 1 to 10 µM.
For the molecule `O=C(Nc1ccc(Cl)cc1Cl)c1cc(F)ccc1O` [Compound 38], the IC50 in experiment [2] was over 10 µM; in experiment [3] it was 1 to 10 µM; in experiment [1] (HL-60, second Table 4), under 1 µM.
As to `O=C(Nc1ccc(F)cc1F)c1cc(F)ccc1O` [Compound 39], the half-inhibitory concentration (IC50) in experiment [2] was 1 to 10 µM; in experiment [3] it was 1 to 10 µM; in experiment [1] (HL-60, second Table 4), 1 to 10 µM.
As to `O=C(Nc1cccc(F)c1F)c1cc(F)ccc1O` [Compound 40], the half-maximal inhibitory concentration (IC50) in experiment [2] lay within 1 to 10 µM; in experiment [3] it was 1 to 10 µM; in experiment [1] (HL-60, second Table 4), 1 to 10 µM.
For the molecule `O=C(Nc1cc(F)cc(F)c1)c1cc(F)ccc1O` [Compound 41], in experiment [1] (HL-60, second Table 4), the IC50 was under 1 µM.
`O=C(Nc1cc(Cl)cc(Cl)c1)c1cc(F)ccc1O` [Compound 42]: the concentration for half-maximal inhibition (IC50) in experiment [2] was under 1 µM; in experiment [3] it was 1 to 10 µM; in experiment [1] (HL-60, second Table 4), under 1 µM.
For `O=C(Nc1cccc(Cl)c1)c1cc(F)ccc1O` [Compound 43], the half-inhibitory concentration (IC50) in experiment [2] was in the range of 1 to 10 µM; in experiment [3], 1 to 10 µM; in experiment [1] (HL-60, second Table 4), 1 to 10 µM.
Consider `O=C(Nc1ccc(C(F)(F)F)cc1)c1cc(F)ccc1O` [Compound 44], for which the 50% inhibitory concentration (IC50) is under 1 µM in experiment [2]; under 1 µM in experiment [3]; under 1 µM in experiment [1] (HL-60, second Table 4).
Regarding `O=C(Nc1ccc(OC(F)(F)F)cc1)c1cc(F)ccc1O` [Compound 45], the 50% inhibitory concentration (IC50) in experiment [2] was under 1 µM; in experiment [3], 1 to 10 µM; in experiment [1] (HL-60, second Table 4), under 1 µM.
With `O=C(Nc1ccc(OC(F)(F)F)c(Cl)c1)c1cc(F)ccc1O` [Compound 46], the IC50 was under 1 µM in experiment [2]; under 1 µM in experiment [3]; under 1 µM in experiment [1] (HL-60, second Table 4).
Consider `O=C(Nc1ccc(Cl)c(C(F)(F)F)c1)c1cc(F)ccc1O` [Compound 47], for which the half-maximal inhibitory concentration (IC50) in experiment [2] was over 10 µM; in experiment [3], under 1 µM; in experiment [1] (HL-60, second Table 4), under 1 µM.
Turning to `O=C(Nc1ccc(F)c(C(F)(F)F)c1)c1cc(F)ccc1O` [Compound 48], the IC50 in experiment [2] is under 1 µM; in experiment [3] it was 1 to 10 µM; in experiment [1] (HL-60, second Table 4) it was under 1 µM.
On to `O=C(Nc1ccc(-c2ccccc2)cc1)c1cc(F)ccc1O` [Compound 53], for which the half-maximal inhibitory concentration (IC50) in experiment [1] (HL-60, second Table 4) was 1 to 10 µM.
`COc1cc(NC(=O)c2cc(F)ccc2O)ccc1F` [Compound 55] registered an IC50 in experiment [1] (HL-60, second Table 4) of 1 to 10 µM.
Take `O=C(Nc1ccccc1F)c1cc(F)ccc1O` [Compound 61]: the IC50 in experiment [1] (HL-60, second Table 4) was 1 to 10 µM.
On the same count and under the same terms, the value for `O=C(Nc1ccccc1C(F)(F)F)c1cc(F)ccc1O` [Compound 62] was 1 to 10 µM.
Turning to `CC(=O)Oc1c(C(=O)Nc2ccc(C#N)cc2)ccc2cccnc12` [Compound 74], the concentration for half-maximal inhibition (IC50) in experiment [1] (HL-60, Table 5) fell in the range of 0.1 to 1 µM.
As for `O=C(Nc1c(Cl)cccc1Cl)c1ccc2cccnc2c1O` [Compound 87], the 50% inhibitory concentration (IC50) in experiment [1] (HL-60, Table 5) lay in the range of 0.1 to 1 µM.
In experiment [1] (HL-60, Table 5), `N#Cc1ccc(C#N)c(NC(=O)c2ccc3cccnc3c2O)c1` [Compound 88] displayed a half-inhibitory concentration (IC50) of 0.1 to 1 µM.
Regarding `Cc1ccc(NC(=O)c2ccc3cccnc3c2O)c(C)c1` [Compound 89], the IC50 in experiment [1] (HL-60, Table 5) was in the range of 1 to 10 µM.
`O=C(Nc1ccc([N+](=O)[O-])cc1)c1cc(F)ccc1O` [Compound 160] registered an IC50 in experiment [1] (HL-60, second Table 4) of under 1 µM.

These data come from US20210205292A1, “INHIBITORS OF CREB-CBP INTERACTION FOR TREATMENT OF LEUKEMIA” (The Board of Trustees of the Leland Stanford Junior …, priority 2016, published 2021).
